Consider two compounds from publication PMC9030254, “Target Hopping from Protein Kinases to PXR: Identification of Small-Molecule Protein Kinase Inhibitors as Selective Modulators of Pregnane X Receptor from TüKIC Library” (Cells, 2022).

What all share (experiment): Kinase profiling
Assay type in all cases: biochemical

One assay has as its target T1, HRI (Homo sapiens, UniProt Q9BQI3).
T1 construct: purchased ProQinase (Freiburg, Germany)
The procedure: (§1) The analysis was performed by ProQinase (Freiburg, Germany).

Another assay has as its target T2, EPHA2 (Homo sapiens, UniProt P29317).
T2 construct: purchased ProQinase (Freiburg, Germany)
As to the method:
as §1

The next assay concerns the target T3, PKCepsilon (Homo sapiens, UniProt Q02156).
T3 construct: purchased ProQinase (Freiburg, Germany)
T3 sequence (Q02156 1-737): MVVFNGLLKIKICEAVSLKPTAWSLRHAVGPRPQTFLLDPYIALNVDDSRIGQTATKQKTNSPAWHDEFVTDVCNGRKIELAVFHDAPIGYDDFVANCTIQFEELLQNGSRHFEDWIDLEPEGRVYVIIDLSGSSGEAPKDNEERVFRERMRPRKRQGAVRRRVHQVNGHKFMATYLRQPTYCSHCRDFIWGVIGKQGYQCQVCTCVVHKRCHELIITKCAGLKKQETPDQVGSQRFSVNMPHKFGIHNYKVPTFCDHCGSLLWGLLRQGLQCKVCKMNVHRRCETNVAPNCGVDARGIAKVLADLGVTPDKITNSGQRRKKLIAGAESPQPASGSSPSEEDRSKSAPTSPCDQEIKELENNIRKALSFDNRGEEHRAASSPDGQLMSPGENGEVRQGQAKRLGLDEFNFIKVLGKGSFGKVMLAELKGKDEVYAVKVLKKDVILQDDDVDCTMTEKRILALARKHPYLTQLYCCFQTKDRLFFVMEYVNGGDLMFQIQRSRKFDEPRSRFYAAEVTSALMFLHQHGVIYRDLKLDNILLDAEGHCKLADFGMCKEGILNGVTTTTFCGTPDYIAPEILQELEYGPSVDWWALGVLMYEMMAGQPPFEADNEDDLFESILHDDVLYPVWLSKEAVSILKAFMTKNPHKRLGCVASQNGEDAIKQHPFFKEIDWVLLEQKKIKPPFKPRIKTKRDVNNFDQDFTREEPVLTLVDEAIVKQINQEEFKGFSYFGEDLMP
As to the method: as §1

Another assay deals with T4, BMX (Homo sapiens, UniProt P51813).
T4 construct: purchased ProQinase (Freiburg, Germany)
T4 sequence (P51813 1-675): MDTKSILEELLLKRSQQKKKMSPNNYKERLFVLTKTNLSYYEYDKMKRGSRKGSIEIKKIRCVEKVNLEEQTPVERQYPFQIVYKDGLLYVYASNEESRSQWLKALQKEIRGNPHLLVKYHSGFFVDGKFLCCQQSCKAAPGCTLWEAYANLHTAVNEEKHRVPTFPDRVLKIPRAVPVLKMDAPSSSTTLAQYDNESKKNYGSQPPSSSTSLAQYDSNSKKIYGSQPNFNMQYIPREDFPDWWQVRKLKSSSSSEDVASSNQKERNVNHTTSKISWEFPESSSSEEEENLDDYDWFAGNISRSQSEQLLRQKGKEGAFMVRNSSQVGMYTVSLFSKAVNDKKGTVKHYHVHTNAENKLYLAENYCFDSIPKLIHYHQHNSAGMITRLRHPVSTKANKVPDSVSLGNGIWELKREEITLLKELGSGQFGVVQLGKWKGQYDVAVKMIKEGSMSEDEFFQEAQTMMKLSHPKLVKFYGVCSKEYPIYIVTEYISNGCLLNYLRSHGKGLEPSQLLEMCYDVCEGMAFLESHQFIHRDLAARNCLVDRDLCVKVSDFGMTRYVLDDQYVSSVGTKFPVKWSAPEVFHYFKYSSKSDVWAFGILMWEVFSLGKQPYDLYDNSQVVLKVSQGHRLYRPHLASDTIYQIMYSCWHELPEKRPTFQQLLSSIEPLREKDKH
The procedure: as §1

The target of the next assay is T5, CDK9/CycK (Homo sapiens, UniProt P50750).
T5 construct: purchased ProQinase (Freiburg, Germany)
T5 sequence (P50750 whole entry): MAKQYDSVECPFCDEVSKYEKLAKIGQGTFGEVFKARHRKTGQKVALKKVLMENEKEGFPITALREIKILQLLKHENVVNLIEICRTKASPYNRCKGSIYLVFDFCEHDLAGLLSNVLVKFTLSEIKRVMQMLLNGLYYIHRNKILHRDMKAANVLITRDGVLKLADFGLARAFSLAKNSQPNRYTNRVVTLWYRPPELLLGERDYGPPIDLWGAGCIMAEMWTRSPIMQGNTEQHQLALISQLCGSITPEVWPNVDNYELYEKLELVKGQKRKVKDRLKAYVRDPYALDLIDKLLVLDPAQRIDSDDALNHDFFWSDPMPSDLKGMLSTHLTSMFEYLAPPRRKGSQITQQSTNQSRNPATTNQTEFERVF
T5 sequence (O75909 whole entry partner): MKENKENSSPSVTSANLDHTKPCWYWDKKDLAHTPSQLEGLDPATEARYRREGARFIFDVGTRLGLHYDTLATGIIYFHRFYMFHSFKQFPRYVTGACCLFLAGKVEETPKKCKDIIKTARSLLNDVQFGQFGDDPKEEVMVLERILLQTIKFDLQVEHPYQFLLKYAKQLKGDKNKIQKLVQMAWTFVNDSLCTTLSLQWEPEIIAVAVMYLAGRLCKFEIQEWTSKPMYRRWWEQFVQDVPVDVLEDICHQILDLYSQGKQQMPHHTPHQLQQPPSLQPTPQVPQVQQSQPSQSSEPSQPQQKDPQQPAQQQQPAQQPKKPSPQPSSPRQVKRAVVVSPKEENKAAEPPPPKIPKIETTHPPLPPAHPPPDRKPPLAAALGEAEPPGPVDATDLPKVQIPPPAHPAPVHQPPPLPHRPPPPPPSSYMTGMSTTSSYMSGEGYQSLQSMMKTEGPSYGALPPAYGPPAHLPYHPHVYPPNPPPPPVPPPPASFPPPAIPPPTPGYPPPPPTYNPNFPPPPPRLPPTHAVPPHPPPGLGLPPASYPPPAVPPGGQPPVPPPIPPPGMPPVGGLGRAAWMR
The procedure:
as §1

In the next assay the target is T6, PKMYT1 (Homo sapiens, UniProt Q99640).
T6 construct: purchased ProQinase (Freiburg, Germany)
T6 sequence (Q99640 1-499): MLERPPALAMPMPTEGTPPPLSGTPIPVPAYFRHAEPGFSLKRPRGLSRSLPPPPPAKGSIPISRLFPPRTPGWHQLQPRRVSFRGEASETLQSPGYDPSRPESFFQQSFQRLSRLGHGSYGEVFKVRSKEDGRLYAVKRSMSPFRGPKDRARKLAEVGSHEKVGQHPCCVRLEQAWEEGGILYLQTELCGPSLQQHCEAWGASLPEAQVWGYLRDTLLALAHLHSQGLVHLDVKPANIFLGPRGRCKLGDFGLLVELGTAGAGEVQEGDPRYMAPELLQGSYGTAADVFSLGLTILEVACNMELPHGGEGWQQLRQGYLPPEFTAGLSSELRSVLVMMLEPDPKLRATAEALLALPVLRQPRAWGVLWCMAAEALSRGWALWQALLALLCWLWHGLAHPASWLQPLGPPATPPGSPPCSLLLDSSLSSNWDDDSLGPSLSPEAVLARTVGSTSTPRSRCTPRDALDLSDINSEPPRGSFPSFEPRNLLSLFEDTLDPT
The procedure: as §1

The next assay addresses T7, ACVR1 (Homo sapiens, UniProt Q04771).
T7 construct: purchased ProQinase (Freiburg, Germany)
T7 sequence (Q04771 21-509): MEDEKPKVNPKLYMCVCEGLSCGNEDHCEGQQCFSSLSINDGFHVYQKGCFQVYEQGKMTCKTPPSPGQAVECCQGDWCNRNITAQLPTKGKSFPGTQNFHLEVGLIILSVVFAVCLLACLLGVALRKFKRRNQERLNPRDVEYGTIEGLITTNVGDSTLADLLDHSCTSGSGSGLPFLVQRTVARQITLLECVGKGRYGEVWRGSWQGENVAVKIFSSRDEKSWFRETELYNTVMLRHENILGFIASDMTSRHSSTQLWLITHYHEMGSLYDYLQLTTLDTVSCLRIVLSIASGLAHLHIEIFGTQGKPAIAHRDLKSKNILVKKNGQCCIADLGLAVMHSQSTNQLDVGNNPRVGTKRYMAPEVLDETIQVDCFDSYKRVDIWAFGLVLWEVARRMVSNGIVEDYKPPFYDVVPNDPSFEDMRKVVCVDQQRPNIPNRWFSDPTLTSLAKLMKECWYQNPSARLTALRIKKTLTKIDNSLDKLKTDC
The procedure:
as §1

T1 sequence (Q9BQI3 whole entry): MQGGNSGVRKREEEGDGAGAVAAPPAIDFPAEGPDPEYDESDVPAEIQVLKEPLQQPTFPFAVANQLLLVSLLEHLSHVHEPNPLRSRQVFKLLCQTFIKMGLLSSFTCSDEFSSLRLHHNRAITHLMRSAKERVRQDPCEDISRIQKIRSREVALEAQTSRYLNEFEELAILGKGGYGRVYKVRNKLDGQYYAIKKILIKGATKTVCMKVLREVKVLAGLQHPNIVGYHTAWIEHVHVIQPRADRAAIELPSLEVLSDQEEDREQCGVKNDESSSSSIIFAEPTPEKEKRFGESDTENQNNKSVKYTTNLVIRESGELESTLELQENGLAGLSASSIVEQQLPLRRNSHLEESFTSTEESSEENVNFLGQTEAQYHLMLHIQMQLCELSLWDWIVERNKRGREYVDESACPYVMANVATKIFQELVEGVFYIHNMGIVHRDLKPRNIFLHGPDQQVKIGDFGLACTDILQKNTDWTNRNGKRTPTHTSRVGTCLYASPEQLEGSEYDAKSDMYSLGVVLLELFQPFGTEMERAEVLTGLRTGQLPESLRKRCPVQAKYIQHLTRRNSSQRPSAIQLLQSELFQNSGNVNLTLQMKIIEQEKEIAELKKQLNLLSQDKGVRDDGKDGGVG
T2 sequence (P29317 24-976): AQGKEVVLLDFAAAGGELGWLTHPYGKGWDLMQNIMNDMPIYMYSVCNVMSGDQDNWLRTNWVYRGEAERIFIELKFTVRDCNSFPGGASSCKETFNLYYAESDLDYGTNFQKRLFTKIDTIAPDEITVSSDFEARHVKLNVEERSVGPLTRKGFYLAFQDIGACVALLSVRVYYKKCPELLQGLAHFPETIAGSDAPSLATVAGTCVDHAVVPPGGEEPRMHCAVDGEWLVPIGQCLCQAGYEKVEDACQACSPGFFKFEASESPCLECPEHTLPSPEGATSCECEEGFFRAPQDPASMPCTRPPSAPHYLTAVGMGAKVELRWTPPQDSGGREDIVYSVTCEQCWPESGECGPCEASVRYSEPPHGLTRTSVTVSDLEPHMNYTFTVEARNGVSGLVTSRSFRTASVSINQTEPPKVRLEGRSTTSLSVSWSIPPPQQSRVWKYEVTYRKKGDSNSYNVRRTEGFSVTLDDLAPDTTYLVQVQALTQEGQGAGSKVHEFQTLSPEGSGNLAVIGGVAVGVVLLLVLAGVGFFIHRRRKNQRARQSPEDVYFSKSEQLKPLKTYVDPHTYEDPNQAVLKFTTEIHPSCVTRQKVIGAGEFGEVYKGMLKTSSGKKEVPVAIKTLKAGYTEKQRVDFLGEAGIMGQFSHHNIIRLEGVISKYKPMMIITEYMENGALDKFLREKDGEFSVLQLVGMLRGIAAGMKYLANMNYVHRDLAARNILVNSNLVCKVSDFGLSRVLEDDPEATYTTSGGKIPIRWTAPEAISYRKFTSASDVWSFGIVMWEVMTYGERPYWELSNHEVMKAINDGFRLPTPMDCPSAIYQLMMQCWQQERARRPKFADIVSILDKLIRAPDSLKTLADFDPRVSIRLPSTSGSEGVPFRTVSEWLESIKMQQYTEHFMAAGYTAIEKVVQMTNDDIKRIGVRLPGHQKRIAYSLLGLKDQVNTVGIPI

On to `O=C(Cc1ccccc1)Nc1ccc(F)c(Nc2ccc3c(c2)CCCCC3=O)c1` [Compound 100], for which the Residual activity at HRI (1.0E-05 M) is on record as 123 % of control; on HRI (1.0E-06 M), 120 % of control; at EPHA2 (1.0E-05 M), 94 % of control; on EPHA2 (1.0E-06 M), 116 % of control; at PKCepsilon (1.0E-05 M) it was 107 % of control; on PKCepsilon (1.0E-06 M) it was 107 % of control. In addition, the Residual activity on BMX (1.0E-05 M) was 71 % of control; on BMX (1.0E-06 M) it was 111 % of control; at CDK9/CycK (1.0E-05 M), 89 % of control; at CDK9/CycK (1.0E-06 M) it was 91 % of control; at PKMYT1 (1.0E-05 M) it was 93 % of control; at PKMYT1 (1.0E-06 M), 102 % of control. Also, the Residual activity is reported as 93 % of control at ACVR1 (1.0E-05 M) and 97 % of control on ACVR1 (1.0E-06 M).

In the case of `O=C(Nc1ccc(F)c(Nc2ccc3c(c2)CCCCC3=O)c1)c1cccc(F)c1` [Compound 109], the Residual activity on HRI (1.0E-05 M) is 129 % of control; at HRI (1.0E-06 M), 98 % of control; at EPHA2 (1.0E-05 M), 107 % of control; at EPHA2 (1.0E-06 M), 105 % of control; at PKCepsilon (1.0E-05 M), 103 % of control; on PKCepsilon (1.0E-06 M), 104 % of control. For the same compound, the Residual activity at BMX (1.0E-05 M) was 83 % of control; at BMX (1.0E-06 M) it was 100 % of control; at CDK9/CycK (1.0E-05 M), 95 % of control; at CDK9/CycK (1.0E-06 M), 90 % of control; on PKMYT1 (1.0E-05 M), 95 % of control; on PKMYT1 (1.0E-06 M), 98 % of control. The Residual activity was 97 % of control at ACVR1 (1.0E-05 M) and 88 % of control at ACVR1 (1.0E-06 M).
